From PMC10353390, “Biological and Structural Analyses of New Potent Allosteric Inhibitors of HIV-1 Integrase” (Antimicrobial Agents and Chemotherapy, 2023)
Where two headings read alike, the source gives them in different places.

Assays:
[1] = set-up: method as in ref 47 = [47]; 47 Mitchell M , Balakrishnan M , Brizgys G , Cai R , Lansdon E , Mulato A , Osier M , Wang J , Yu H , Sakowicz R . 2017 . Novel non-catalytic site integrase inhibitor with improved resistance profile.; settings: precluded further clinical investigation; cited from earlier work
[2] = system: primary HIV-1 isolates with polymorphisms at IN positions 124 and 125; assay: Multiple-round infection of MT4 cells with primary HIV-1 isolates polymorphic at IN positions 124 and 125; type: cell-based; settings: primary isolate
In short: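 Antiviral potency read as protection of cell viability (CellTiter-Glo luminescence). Infection at MOI 0.001 lasted 2 h with compound present at a range of concentrations, using MT4 cells at 10^6/mL in exponential growth.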

[3] = molecular target: CCD of HIV-1 IN and IBD of LEDGF/p75 (Human immunodeficiency virus type 1 group M subtype B, UniProt P12497); assay: biochemical
[4] = system: NL4-3 HIV-1 with INLAI-selected IN single point mutations; type: cell-based
[5] = system: lab-adapted and clinical HIV-1 isolates; assay: Infection assays in primary T CD4+ lymphocytes; type: cell-based; settings: Human immunodeficiency virus 1, Lymphocyte
[6] = molecular target: HIV-1 IN-LEDGF/p75 interaction (Human immunodeficiency virus type 1 group M subtype B, UniProt P12497); assay: biochemical
Experimental: The INLAIs were tested for the ability to inhibit the HIV-1 IN-LEDGF/p75 interaction in a homogeneous time-resolved fluorescence (HTRF) assay. Our assays used either full-length IN and LEDGF/p75 proteins or their respective minimally sufficient interaction domains: the CCD of HIV-1 IN and the IBD of LEDGF/p75 (Table 1).
HTRF-based CCD-IBD interaction, IN-LEDGF/p75 interaction and IN multimerization assays were performed as described previously ([12]).

HXB2 HIV-1 strain = assay: Multiple-round infection assay in MT4 cells, HXB2; type: cell-based; settings: Human immunodeficiency virus 1, HXB2; multiple-round infection, MT4 cells; mean ± SD, n > 5; read-out: EC50 HXB2
In short: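 Antiviral read-out was CellTiter-Glo luminescent viability of exponentially growing MT4 cells (10^6/mL). Cells were exposed to HIV-1 for 2 h at an MOI of 0.001 while compound was present at varying concentrations.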

[7] = system: HIV-1 strains resistant to INSTIs, NRTIs, NNRTIs or PIs; type: cell-based
In short: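 Cell viability (CellTiter-Glo luminescence) served as read-out in MT4 cells at 10^6/mL, infected 2 h at MOI 0.001 in presence of graded compound concentrations. Viruses: resistance-mutation recombinants in NL4-3 backbone plus resistant clinical isolates.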

[8] = Cytotoxicity assay in MT4 cells; type: cell-based; settings: human, MT4 cells (proliferating human T-cell line), CellTiter-Glo
Excerpt: Growth inhibition was monitored in a proliferating human T-cell line (MT4) with different concentrations of compounds, using the CellTiter-Glo luminescent reagent (Promega), as previously described ([12]).

[9] = system: VSV-G-pseudotyped NL4-3Δenv-luc; assay: microbe, parasite or virus in culture; type: cell-based, HIV-1
HIV-1 IN = molecular target: T1, HIV-1 IN (Human immunodeficiency virus type 1 group M subtype B, UniProt P12497); assay: HTRF IN multimerization assay; type: biochemical; settings: mean ± SD
T1 construct: made in house
Excerpt: A key property of INLAIs is the ability to promote HIV-1 IN homo-multimerization ([39][–][42]). […] The maximal signal (plateau) in our IN aggregation assay corresponds to the highest HTRF signal increase under saturating INLAI concentration, relative to baseline level. Thus, MUT916, MUT884, MUT871, and MUT872 increased HIV-1 IN aggregation 3.7 to 4.4-fold, while BDM-2, BI-224436, and S-I-82 did so 5 to 6-fold (Table 1).

[10] = system: recombinant NL4-3 viruses with polymorphisms at IN positions 124 and 125; assay: Multiple-round infection of MT4 cells with recombinant NL4-3 viruses polymorphic at IN positions 124 and 125; type: cell-based, HIV-1
In short: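 EC50 fold change relative to wild-type TT NL4-3 was derived from CellTiter-Glo viability of exponentially growing MT4 cells (10^6/mL). Cells were exposed for 2 h, with compounds, to NL4-3 clones bearing one of 15 IN 124/125 variants at MOI 0.001.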

NL4-3 HIV-1 strain = assay: Multiple-round infection assay in MT4 cells, NL4-3; type: cell-based; settings: MT4 cells
[11] = INSTI-resistant, NL4-3 background

Compound: Cc1cc2nc(-c3ccc4c(c3)c(C3CCN(C5COC5)CC3)nn4C)sc2c(-c2ccc(Cl)cc2)c1[C@H](OC(C)(C)C)C(=O)O [GS-9822]
- toxicity [1]: renal and urinary bladder toxicity

Compound: Cc1ccc(C2CC2)c(-c2ccc3c(c2C)CCCO3)c1[C@H](OC1CC1)C(=O)O [MUT884]
- Fold change in EC50 relative to parental NL4-3, CAM2BBY (CRF02) ([2]; IN 124/125 AA): 1
- Fold change in EC50 relative to parental NL4-3, E0836M4 (D) ([2]; IN 124/125 AA): 1
- Fold change in EC50 relative to parental NL4-3, KER2008 (A) ([2]; IN 124/125 AA): 0.5
- Fold change in EC50 relative to parental NL4-3, NP1525 (CRF01) ([2]; IN 124/125 AA): 1
- Fold change in EC50 relative to parental NL4-3, NP1695 (CRF02) ([2]; IN 124/125 AA): 2
- Fold change in EC50 relative to parental NL4-3, TZA125 (C) ([2]; IN 124/125 AA): 0.3
- Fold change in EC50 relative to parental NL4-3, KSM4030 (A) ([2]; IN 124/125 GA): 1
- Fold change in EC50 relative to parental NL4-3, vGA (C) ([2]; IN 124/125 GA): 5
- Fold change in EC50 relative to parental NL4-3, 99ET14 (C) ([2]; IN 124/125 NA): 1
- Fold change in EC50 relative to parental NL4-3, NP1538 (B) ([2]; IN 124/125 NA): 3
- Fold change in EC50 relative to parental NL4-3, vNA_1 (B) ([2]; IN 124/125 NA): 3
- Fold change in EC50 relative to parental NL4-3, vNA_2 (CRF02) ([2]; IN 124/125 NA): 4
- Fold change in EC50 relative to parental NL4-3, vNV (B) ([2]; IN 124/125 NV): 2
- Fold change in EC50 relative to parental NL4-3, vSA_1 (B) ([2]; IN 124/125 SA): 2
- Fold change in EC50 relative to parental NL4-3, vSA_2 (CRF02) ([2]; IN 124/125 SA): 2
- Fold change in EC50 relative to parental NL4-3, vTA_1 (B) ([2]; IN 124/125 TA): 1
- Fold change in EC50 relative to parental NL4-3, vTA_2 (CRF02) ([2]; IN 124/125 TA): 2
- IC50 [3]: 82 ± 21 nM
- EC50 fold change compared to wild type NL4-3, A128T [4]: 5
- EC50 fold change compared to wild type NL4-3, H171Q [4]: 1
- EC50 fold change compared to wild type NL4-3, N222K [4]: 3
- EC50 fold change compared to wild type NL4-3, T174I [4]: 12
- EC50 fold change compared to wild type NL4-3, Y99H [4]: 2
- EC50 ([5]; read-out: EC50 33913N (B)): 5.8 ± 3.2 nM
- EC50 ([5]; read-out: EC50 HXB2 (B)): 10 ± 6 nM
- EC50 ([5]; read-out: EC50 KER2008 (A)): 19 ± 3 nM
- EC50 ([5]; read-out: EC50 NL4-3 (B)): 15 ± 4 nM
- EC50 ([5]; read-out: EC50 NP1525 (CRF01_AE)): 12 ± 3 nM
- EC50 ([5]; read-out: EC50 NP1538 (B)): 41 ± 2 nM
- IC50 [6]: 62 ± 9 nM
- EC50 (HXB2 HIV-1 strain): 6.3 ± 1.1 nM
- Fold change in EC50 relative to NL4-3, E92Q [7, 11]: 1
- Fold change in EC50 relative to NL4-3, G140S [7, 11]: 1
- Fold change in EC50 relative to NL4-3, G140S/Q148H [7, 11]: 1
- Fold change in EC50 relative to NL4-3, N155H [7, 11]: 1
- Fold change in EC50 relative to NL4-3, Q148H [7, 11]: 1
- Fold change in EC50 relative to NL4-3, Y143R [7, 11]: 0.5
- Fold change in EC50 relative to NL4-3, NLAY351717 ([7]; NRTI-resistant clone): 1
- Fold change in EC50 relative to NL4-3, NLAY351753 ([7]; NRTI/NNRTI-resistant clone): 1
- Fold change in EC50 relative to NL4-3, K103N/Y181C ([7]; NRTI/NNRTIs group, NL4-3 background): 1
- Fold change in EC50 relative to NL4-3, ARP-4595 ([7]; PI-resistant virus): 1
- Fold change in EC50 relative to NL4-3, ARP-4596 ([7]; PI-resistant virus): 1
- Fold change in EC50 relative to NL4-3, ARP-11801 ([7]; PI-resistant virus): 3
- Fold change in EC50 relative to NL4-3, ARP-11803 ([7]; PI-resistant virus): 2
- Fold change in EC50 relative to NL4-3, ARP-11807 ([7]; PI-resistant virus): 1
- Fold change in EC50 relative to NL4-3, ARP-11808 ([7]; PI-resistant virus): 2
- CC50 [8]: 78000 ± 12000 nM
- EC50 ratio (single/multiple-round infection) [9]: 260
- EC50 ([9]; Human immunodeficiency virus 1, NL43, MT4, read-out: EC50 in single-round infection): 3900 ± 800 nM
- AC50 (HIV-1 IN; concentration for 50% maximum activation of multimerization): 22 ± 4 nM
- IN multimerization Plateau (HIV-1 IN; maximum multimerization reached versus baseline): 400 ± 71%
- Fold change in EC50 relative to parental NL4-3, AA ([10]; recombinant NL4-3, IN 124/125 AA): 0.4
- Fold change in EC50 relative to parental NL4-3, AM ([10]; recombinant NL4-3, IN 124/125 AM): 0.2
- Fold change in EC50 relative to parental NL4-3, AT ([10]; recombinant NL4-3, IN 124/125 AT): 1
- Fold change in EC50 relative to parental NL4-3, AV ([10]; recombinant NL4-3, IN 124/125 AV): 0.5
- Fold change in EC50 relative to parental NL4-3, GA ([10]; recombinant NL4-3, IN 124/125 GA): 1
- Fold change in EC50 relative to parental NL4-3, GT ([10]; recombinant NL4-3, IN 124/125 GT): 2
- Fold change in EC50 relative to parental NL4-3, NA ([10]; recombinant NL4-3, IN 124/125 NA): 2
- Fold change in EC50 relative to parental NL4-3, NT ([10]; recombinant NL4-3, IN 124/125 NT): 1
- Fold change in EC50 relative to parental NL4-3, NV ([10]; recombinant NL4-3, IN 124/125 NV): 1
- Fold change in EC50 relative to parental NL4-3, SA ([10]; recombinant NL4-3, IN 124/125 SA): 1
- Fold change in EC50 relative to parental NL4-3, ST ([10]; recombinant NL4-3, IN 124/125 ST): 1
- Fold change in EC50 relative to parental NL4-3, TA ([10]; recombinant NL4-3, IN 124/125 TA): 1
- Fold change in EC50 relative to parental NL4-3, TM ([10]; recombinant NL4-3, IN 124/125 TM): 0.2
- Fold change in EC50 relative to parental NL4-3, TV ([10]; recombinant NL4-3, IN 124/125 TV): 1
- EC90 (NL4-3 HIV-1 strain; Human immunodeficiency virus 1, NL43, multiple-round infection, from dose response curves, read-out: EC90 NL4-3): 23 ± 13 nM
- EC50 (NL4-3 HIV-1 strain; Human immunodeficiency virus 1, NL43, multiple-round infection, mean ± SD, n > 5, read-out: EC50 NL4-3): 15 ± 5 nM
- Selectivity index CC50/EC50 NL4-3 (NL4-3 HIV-1 strain): 5,200
